Columns and labels:
[1] = test system: Myzus persicae; test: Myzus persicae (green peach aphid) pea seedling root uptake test; details: 144 h, read-out: control of Myzus persicae
[2] = test system: Myzus persicae; test: Myzus persicae (green peach aphid) sunflower leaf disc spray test; details: foliar, 144 h, read-out: control of Myzus persicae
[3] = test system: Tetranychus urticae; test: Tetranychus urticae (two-spotted spider mite) bean leaf disc spray test; details: foliar, 192 h, read-out: control of Tetranychus urticae

Row | SMILES | pest or weed control at 24 ppm [1] [%] | pest or weed control at 200 ppm [2] [%] | pest or weed control at 200 ppm [3] [%]
1 | COc1ccccc1C(=O)OCCNC(=S)NC1CCc2c(F)cccc21 (stereo not shown) [Compound 11.007] | ≥ 80 | ≥ 80 | ≥ 80
2 | Cc1c(S(=O)(=O)c2ccc(Cl)cc2)csc1C(=O)OCCNC(=S)NC1CCc2c(F)cccc21 (stereo not shown) [Compound 11.046] |  | ≥ 80 | ≥ 80
3 | O=C(Cc1cccc(C(F)(F)F)c1)OCCNC(=S)NC1CCc2c(F)cccc21 (stereo not shown) [Compound 11.065] | ≥ 80 | ≥ 80 | ≥ 80
4 | CCCC(C(=O)OCCNC(=S)NC1CCc2c(F)cccc21)c1ccc(Cl)cc1Cl (stereo not shown) [Compound 11.040] | ≥ 80 | ≥ 80 | ≥ 80
5 | Cc1ccsc1C(=O)OCCNC(=S)NC1CCc2c(F)cccc21 (stereo not shown) [Compound 11.067] |  | ≥ 80 | ≥ 80
6 | O=C(Cc1ccccc1F)OCCNC(=S)NC1CCc2c(F)cccc21 (stereo not shown) [Compound 11.062] | ≥ 80 | ≥ 80 | ≥ 80
7 | O=C(/C=C/c1ccccc1)OCCNC(=S)NC1CCc2c(F)cccc21 (stereo not shown) [Compound 11.006] | ≥ 80 | ≥ 80 | ≥ 80
8 | O=C(NCCOC(=O)c1cnn(-c2ccccc2)c1C(F)(F)F)NC1CCc2c(F)cccc21 (stereo not shown) [Compound 11.059] | ≥ 80 | ≥ 80 | ≥ 80
9 | COc1cc(C(=O)OCCNC(=S)NC2CCc3c(F)cccc32)cc(Cl)n1 (stereo not shown) [Compound 11.047] | ≥ 80 | ≥ 80 | ≥ 80
10 | Cc1ccc(-n2c(=O)cc(C(F)(F)F)n(C)c2=O)cc1C(=O)OCCNC(=S)NC1CCc2c(F)cccc21 (stereo not shown) [Compound 11.043] |  | ≥ 80 | ≥ 80
11 | O=C(OCCNC(=S)NC1CCc2c(F)cccc21)C1Cc2ccccc2O1 (stereo not shown) [Compound 11.055] | ≥ 80 | ≥ 80 | ≥ 80
12 | O=C(Cc1ccc(F)cc1)OCCNC(=S)NC1CCc2c(F)cccc21 (stereo not shown) [Compound 11.063] | ≥ 80 | ≥ 80 | ≥ 80
13 | O=C(Cc1ccc(Cl)cc1)OCCNC(=S)NC1CCc2c(F)cccc21 (stereo not shown) [Compound 11.018] | ≥ 80 | ≥ 80 | ≥ 80
14 | O=C(OCCNC(=S)NC1CCc2c(F)cccc21)c1ccc(F)cc1 (stereo not shown) [Compound 11.003] | ≥ 80 | ≥ 80 | ≥ 80
15 | O=C(OCCNC(=S)NC1CCc2c(F)cccc21)N(c1ccccc1)c1ccccc1 (stereo not shown) [Compound 11.039] |  | ≥ 80 | 
16 | O=C(OCCNC(=S)NC1CCc2c(F)cccc21)c1cc(F)ccc1F (stereo not shown) [Compound 11.013] | ≥ 80 | ≥ 80 | ≥ 80
17 | O=C(OCCNC(=S)NC1CCc2c(F)cccc21)OCc1ccc([N+](=O)[O-])cc1 (stereo not shown) [Compound 11.030] | ≥ 80 | ≥ 80 | ≥ 80
18 | O=C(OCCNC(=S)NC1CCc2c(F)cccc21)c1ccc(F)cc1C(F)(F)F (stereo not shown) [Compound 11.034] | ≥ 80 | ≥ 80 | 
19 | Cc1ccccc1CC(=O)OCCNC(=S)NC1CCc2c(F)cccc21 (stereo not shown) [Compound 11.060] | ≥ 80 | ≥ 80 | ≥ 80
20 | Cc1cc(C(=O)OCCNC(=S)NC2CCc3c(F)cccc32)c(C(F)(F)F)o1 (stereo not shown) [Compound 11.044] | ≥ 80 | ≥ 80 | ≥ 80
21 | CCC(Oc1ccccc1)C(=O)OCCNC(=S)NC1CCc2c(F)cccc21 (stereo not shown) [Compound 11.051] | ≥ 80 | ≥ 80 | ≥ 80
22 | COc1ccc(C(=O)OCCNC(=S)NC2CCc3c(F)cccc32)cc1 (stereo not shown) [Compound 11.009] | ≥ 80 | ≥ 80 | ≥ 80
23 | COC(=O)OCCNC(=S)NC1CCc2c(F)cccc21 (stereo not shown) [Compound 3.038, carbonic acid 2-[3(4-fluoro-indan-1-yl)-thioureido]-ethyl methylester] | ≥ 80 | ≥ 80 | ≥ 80
24 | O=C(OCCNC(=S)NC1CCc2c(F)cccc21)c1ccccc1Cl (stereo not shown) [Compound 11.012] | ≥ 80 | ≥ 80 | ≥ 80
25 | O=C(OCCNC(=S)NC1CCc2c(F)cccc21)c1ccc(C(F)(F)F)cc1 (stereo not shown) [Compound 11.024] | ≥ 80 | ≥ 80 | ≥ 80

Row | SMILES | pest or weed control at 24 ppm [1] [%] | pest or weed control at 200 ppm [2] [%] | pest or weed control at 200 ppm [3] [%]
26 | O=C(OCCNC(=S)NC1CCc2c(F)cccc21)c1ccccc1I (stereo not shown) [Compound 11.054] | ≥ 80 | ≥ 80 | 
27 | O=C(/C=C/c1ccc([N+](=O)[O-])cc1)OCCNC(=S)NC1CCc2c(F)cccc21 (stereo not shown) [Compound 11.027] |  | ≥ 80 | 
28 | O=C(OCCNC(=S)NC1CCc2c(F)cccc21)c1cccc(Cl)c1 (stereo not shown) [Compound 11.011] | ≥ 80 | ≥ 80 | ≥ 80
29 | COc1ccc(CC(=O)OCCNC(=S)NC2CCc3c(F)cccc32)cc1 (stereo not shown) [Compound 11.016] | ≥ 80 | ≥ 80 | ≥ 80
30 | N#Cc1ccc(C(=O)OCCNC(=S)NC2CCc3c(F)cccc32)cc1 (stereo not shown) [Compound 11.005] | ≥ 80 | ≥ 80 | ≥ 80
31 | O=C(OCCNC(=S)NC1CCc2c(F)cccc21)c1cc(Cl)sc1Cl (stereo not shown) [Compound 11.068] |  | ≥ 80 | ≥ 80
32 | C/C(=C\c1ccccc1)C(=O)OCCNC(=S)NC1CCc2c(F)cccc21 (stereo not shown) [Compound 11.053] | ≥ 80 | ≥ 80 | ≥ 80
33 | O=C(OCCNC(=S)NC1CCc2c(F)cccc21)c1ccc(F)c(C(F)(F)F)c1 (stereo not shown) [Compound 11.035] | ≥ 80 | ≥ 80 | ≥ 80
34 | Cc1c(C(=O)OCCNC(=S)NC2CCc3c(F)cccc32)ncn1C(C)(C)C (stereo not shown) [Compound 11.070] | ≥ 80 | ≥ 80 | ≥ 80
35 | O=C(OCCNC(=S)NC1CCc2c(F)cccc21)c1ccc(F)cc1F (stereo not shown) [Compound 11.014] | ≥ 80 | ≥ 80 | ≥ 80
36 | Cc1nn(-c2ccccc2)nc1C(=O)OCCNC(=S)NC1CCc2c(F)cccc21 (stereo not shown) [Compound 11.072] |  | ≥ 80 | ≥ 80
37 | O=C(OCCNC(=S)NC1CCc2c(F)cccc21)c1cccc2c1OC(F)(F)O2 (stereo not shown) [Compound 11.031] | ≥ 80 | ≥ 80 | 
38 | O=C(OCCNC(=S)NC1CCc2c(F)cccc21)c1ccc(Cl)c([N+](=O)[O-])c1 (stereo not shown) [Compound 11.058] | ≥ 80 | ≥ 80 | ≥ 80
39 | O=C(OCCNC(=S)NC1CCc2c(F)cccc21)c1ccc(SC(F)(F)C(F)(F)F)cc1 (stereo not shown) [Compound 11.064] |  | ≥ 80 | ≥ 80
40 | COc1ccc(CC(=O)OCCNC(=S)NC2CCc3c(F)cccc32)cc1OC (stereo not shown) [Compound 11.028] | ≥ 80 | ≥ 80 | ≥ 80
41 | CN(C)c1ccc(C(=O)OCCNC(=S)NC2CCc3c(F)cccc32)cc1 (stereo not shown) [Compound 11.015] |  | ≥ 80 | 
42 | O=C(OCCNC(=S)NC1CCc2c(F)cccc21)c1ccc(Cl)cc1 (stereo not shown) [Compound 11.010] | ≥ 80 | ≥ 80 | ≥ 80
43 | Cc1oc(C(C)(C)C)cc1C(=O)OCCNC(=S)NC1CCc2c(F)cccc21 (stereo not shown) [Compound 11.045] | ≥ 80 | ≥ 80 | 
44 | O=C(OCCNC(=S)NC1CCc2c(F)cccc21)N1CCCCC1 (stereo not shown) [Compound 11.001] |  | ≥ 80 | ≥ 80
45 | O=C(OCCNC(=S)NC1CCc2c(F)cccc21)c1ccccc1C(F)(F)F (stereo not shown) [Compound 11.023] | ≥ 80 | ≥ 80 | ≥ 80
46 | O=C(/C=C/c1cccc(C(F)(F)F)c1)OCCNC(=S)NC1CCc2c(F)cccc21 (stereo not shown) [Compound 11.048] | ≥ 80 | ≥ 80 | ≥ 80
47 | O=C(OCCNC(=S)NC1CCc2c(F)cccc21)c1cncc(Br)c1 (stereo not shown) [Compound 11.049] | ≥ 80 | ≥ 80 | 
48 | O=C(OCc1ccccc1C(=O)OCCNC(=S)NC1CCc2c(F)cccc21)c1ccccc1 (stereo not shown) [Compound 11.041] |  | ≥ 80 | ≥ 80
49 | O=C(OCCNC(=S)NC1CCc2c(F)cccc21)c1cc(C(F)(F)F)ccc1F (stereo not shown) [Compound 11.052] |  | ≥ 80 | ≥ 80
